This is an account of results in patent US20110313156A1 (BOEHRINGER INGELHEIM INTERNATIONAL GMBH, priority 2008, published 2011).

This assay has as its target T1, ΔPH-PDK1 (aa 51-359; Q66A mutation) (Homo sapiens, UniProt O15530, Q66A).
T1 construct: a shortened PDK1 enzyme (aa 51-359; Q66A mutation) is used; His6 (N, cleaved yes)
T1 sequence (O15530 51-359 Q66A): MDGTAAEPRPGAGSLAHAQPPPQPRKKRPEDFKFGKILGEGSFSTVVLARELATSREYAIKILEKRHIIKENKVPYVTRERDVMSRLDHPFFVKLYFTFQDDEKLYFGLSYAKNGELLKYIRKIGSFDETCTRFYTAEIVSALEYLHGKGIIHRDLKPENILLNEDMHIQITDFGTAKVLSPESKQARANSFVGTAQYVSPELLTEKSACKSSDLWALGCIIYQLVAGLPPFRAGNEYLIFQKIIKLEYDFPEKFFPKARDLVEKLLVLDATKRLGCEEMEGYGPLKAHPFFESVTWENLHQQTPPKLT
In words: PDK1 kinase assay II (shortened enzyme). The note with it: compound at 10 μM, one asterisk: incubation for 24 h, read-out: % CTL (residual activity of the enzyme relative to DMSO control). It counts as biochemical. The protocol: Another assay was developed in which a shortened PDK1 enzyme (aa 51-359; Q66A mutation) is used that carries in the N-terminal position a His6 tag that is cleaved during purification. (ΔPH-PDK1).
The following components are combined in a well of a 96-well round-based dish (Messrs. Greiner bio-one, No. 650101): • 15 μL of compound to be tested in varying concentrations (e.g. Starting at 10 μM, and diluted in steps of 1:5) in 3.33% DMSO (final concentration 1% DMSO)/assay buffer (50 mM Tris pH 7.5, 0.05% β-mercaptoethanol, 10 mM Mg-acetate) • 15 μL (ΔPH-PDK1; 12 ng/well) and PDKtide ([…]-QEMFRDFDYIADWC) synthesised by Pepceuticals Limited, Nottingham, United Kingdom; 25 μM final concentration); (ΔPH-PDK1 and PDKtide are together diluted accordingly in assay buffer; PDKtide is present in this mixture as an 83.3 μM solution. These 30 […] are incubated for 24 h at RT before ATP solution is added. • 20 μL ATP solution (25 μM ATP with 1.0 μCi/well gamma-P33-ATP)
The reaction is started by adding the ATP solution and the mixture is incubated for 120 min at ambient temperature; at the start of the reaction the dishes are shaken gently. The reaction is stopped by the addition of 50 μL/well of 500 mM phosphoric acid (H3PO4) and incubated for about 20 min at ambient temperature. The precipitate is transferred by harvesting onto filter plates (96-well microtitre filter plate: UniFilter GF/C; Messrs Perkin Elmer; No. 6005174), then washed 6 times with 50 mM H3PO4 and dried at 60° C. Then the plate is stuck down with sealing tape, 25 μL/well of scintillation solution (Microscint 0; Messrs. Perkin Elmer; No. 6013611) are added and the amount of P33 precipitated is measured using the Wallac Betacounter. The measured data are evaluated using Graphpad Prism software.
The % CTL values indicate the residual activity of the enzyme after the addition of the inhibitory compound in the solvent DMSO in relation to the enzyme activity in the solvent DMSO without the addition of a compound (control). The majority of the values were determined using the PDK1 kinase assay III described hereinbefore. The values marked with an asterisk (* or**) were determined using the PDK1 kinase assay II described hereinbefore (one asterisk→incubation for 24 h; two asterisks→incubation for 5 min)
On to `CC(=O)Nc1ccc(Nc2ncc3cc(/C=C/CNC(=O)c4cncn(Cc5ccc(F)c(F)c5)c4=O)ccc3n2)cc1` [IV-47, N-[(2E)-3-(2-{[4-(acetylamino)phenyl]amino}quinazolin-6-yl)prop-2-en-1-yl]-1-(3,4-difluorobenzyl)-6-oxo-1,6-dihydropyrimidine-5-carboxamide], for which the remaining activity at 10 µM was determined as 16.6%.

With `C/C(=C\c1ccc2nc(Nc3ccc(CN(C)C)cc3)ncc2c1)CNC(=O)c1cncn(Cc2ccc(F)c(F)c2)c1=O` [IV-28, 1-(3,4-difluorobenzyl)-N-{(2E)-3-[2-({4-[(dimethylamino)methyl]phenyl}amino)-quinazolin-6-yl]-2-methylprop-2-en-1-yl}-6-oxo-1,6-dihydropyrimidine-5-carboxamide], the remaining activity at 10 µM came to 27.9%.

As for `CN(C)Cc1c[nH]c(/C=C2\C(=O)Nc3cc(/C=C/CNC(=O)c4cncn(Cc5ccc(F)c(F)c5)c4=O)ccc32)c1` [I-15, 1-(3,4-difluorobenzyl)-N-{(2E)-3-[(3Z)-3-({4-[(dimethylamino)methyl]-1H-pyrrol-2-yl}methylidene)-2-oxo-2,3-dihydro-1H-indol-6-yl]prop-2-en-1-yl}-6-oxo-1,6-dihydropyrimidine-5-carboxamide], the remaining activity at 10 µM amounted to 15.7%.

In the case of `Cc1c(C(=O)NC/C=C/c2cc(OC3CCNCC3)c3nc(Nc4ccc(N5CCOCC5)cc4)ncc3c2)c(=O)n(Cc2ccc(F)c(F)c2)n1C`, the remaining activity at 10 µM came out at 8.9%.
